According to the METLIN SMRT retention time set (Domingo-Almenara et al. 2019):

Test: gradient 5% acetonitrile 3 min, to 50% in 2 min, to 85% in 15 min, held 3 min, 100 µL/min
Settings: column: Zorbax Extend-C18 2.1 x 50 mm; eluents: water / acetonitrile, 0.1% formic acid
Summary of the method: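 Pure standards were run in mixtures of ~100 molecules by HPLC coupled to a quadrupole time-of-flight mass spectrometer. The column was a Zorbax Extend-C18 (2.1 × 50 mm, 1.8 μm) at 100 μL/min, with water and acetonitrile each containing 0.1% formic acid, in positive and negative ionization mode. Dead and dwell volumes were 40 μL and 900 μL. Retention time was taken from computationally picked adduct peaks, each manually inspected, with data collected over 3 months.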

Cc1nc(Nc2ccccn2)sc1C(=O)N1CCN(c2ccccc2F)CC1
RP-LC retention time: 841 s

Cc1cc(C)c(NC(=O)Cn2cccc(-c3nc(-c4ccc(Br)cc4)no3)c2=O)c(C)c1
RP-LC retention time: 1030 s

Clc1ccc(-c2ccc(CNc3ncn[nH]3)o2)c(Cl)c1
RP-LC retention time: 734 s

CCC(C(=O)Nc1ccc2ncnc(N3CCCC3)c2c1)c1ccccc1 (stereo unspecified)
RP-LC retention time: 703 s

Cn1cc(-c2cc3n(n2)CCC(=O)N3CCCC(=O)NCc2cccnc2)c2ccccc21
RP-LC retention time: 616 s

COc1ccccc1NC(=O)C1CCN(S(=O)(=O)c2cc(C(=O)N(C)C)cs2)CC1
RP-LC retention time: 789 s

Cc1cc(NC(C)C)n2c(nc3ccccc32)c1C#N
RP-LC retention time: 610 s

O=c1c2sccc2n(Cc2nc(-c3ccc(Cl)cc3)no2)c(=O)n1-c1cccc(F)c1
RP-LC retention time: 1070 s

Cc1cc(C(=O)Nc2ccccc2F)nc2cc(-c3cccs3)nn12
RP-LC retention time: 1300 s

CCCN1CCN(Cc2nc3nc(C)cc(N4CCCCCC4)n3n2)CC1
RP-LC retention time: 587 s

CCOCCCNS(=O)(=O)c1cccc(-c2nc(-c3ccc(C)cc3)no2)c1
RP-LC retention time: 1160 s

COc1ccc(-c2noc(Cc3nnc(-c4ccc(C)c(C)c4)o3)n2)cc1
RP-LC retention time: 1090 s

Cc1ccc(-c2ncccc2CNS(=O)(=O)c2ccc(F)cc2)cc1
RP-LC retention time: 707 s

Cc1cc(F)ccc1NS(=O)(=O)c1cn(CC(C)C)c2ncccc12
RP-LC retention time: 986 s

O=C(NC1CC1)c1cccc2c1CCN2C(=O)C1CC1
RP-LC retention time: 649 s

CCNc1nc(C)cc(N2CCN(S(=O)(=O)c3ccc(OC)c(C)c3C)CC2)n1
RP-LC retention time: 764 s

Cc1ccc(Cl)c(NS(=O)(=O)c2cc(-c3[nH]ncc3C(=O)N3CCCC3)oc2C)c1
RP-LC retention time: 739 s

O=C(Nc1ccc(OCc2nnc(-c3ccccc3)o2)cc1)c1cnccn1
RP-LC retention time: 832 s

O=c1n(CC2CC2)nc2n1CCC(NS(=O)(=O)Cc1ccccc1)CC2 (stereo unspecified)
RP-LC retention time: 704 s

COC[C@@H]1CN(Cc2cc(Cl)ccc2F)C[C@H]1c1nc(C)no1
RP-LC retention time: 639 s

Cc1ccc(-c2nnc(Cc3nc(-c4cccc(C)c4)no3)o2)cc1
RP-LC retention time: 1110 s

CCOC(=O)N1CCN(c2cc(C(=O)O)c3cc(NC(=O)c4cccc(C)c4)ccc3n2)CC1
RP-LC retention time: 649 s

Cc1ccccc1NC(=O)c1cc(C(C)C)n2nccc2n1
RP-LC retention time: 1090 s

CC(C)N1CCn2cc(S(=O)(=O)Nc3cc(F)cc(F)c3)cc2C1=O
RP-LC retention time: 794 s

N#Cc1cccc(NC(=O)Cn2cccc(-c3nc(-c4ccc(Cl)cc4)no3)c2=O)c1
RP-LC retention time: 926 s

Cc1[nH]c(=O)[nH]c(=O)c1CC(=O)N1CCN(c2cccc(Cl)c2Cl)CC1
RP-LC retention time: 654 s

COc1ccc(CCc2nc3nccc(-c4cccnc4)n3n2)cc1OC
RP-LC retention time: 666 s

Cc1nc(-c2noc(-c3ccncc3)n2)cn1CC(=O)NCc1cccs1
RP-LC retention time: 640 s

Cc1ccc(C)c(NC(=O)Cn2c(C)nc3c(sc4nc(-c5ccccc5)ccc43)c2=O)c1
RP-LC retention time: 1090 s

Cc1ccc(N2CC(c3noc(-c4ccoc4)n3)CC2=O)cc1 (stereo unspecified)
RP-LC retention time: 868 s

CC1CCN(C(=O)c2cc3c(s2)CCC(C(=O)N2CCCC2)C3)CC1 (stereo unspecified)
RP-LC retention time: 849 s

O=C(Nc1cnc(-c2ccc(Cl)cc2)nc1)c1cccs1
RP-LC retention time: 1040 s

CC(C)CNC(=O)c1cn(-c2ncccc2-c2nc(C(C)(C)C)no2)cn1
RP-LC retention time: 872 s

CCn1c(SCC(=O)Nc2ccccc2C(F)(F)F)nc2c(c1=O)SC(C)C2 (stereo unspecified)
RP-LC retention time: 854 s

O=C(Cn1nc2c(N3CCOCC3)nccn2c1=O)Nc1cc(C(F)(F)F)ccc1Cl
RP-LC retention time: 827 s

O=C(NCCc1ccncc1)c1ccc2c(c1)ncn2-c1ccccc1
RP-LC retention time: 550 s

CC(C)c1ccc(NC(=O)CN2CCN(C(=O)Nc3ccc(Br)cc3)CC2=O)cc1
RP-LC retention time: 885 s

CCOC(=O)c1noc2nc(C)nc(NCc3ccccc3)c12
RP-LC retention time: 1060 s

CSc1nnc(-c2nn(C)c3c2CN(C(=O)c2ccccc2Br)CC3)n1C
RP-LC retention time: 717 s

COc1ccccc1C(O)Cn1ccn2nc(-c3ccc(C)c(C)c3)cc2c1=O (stereo unspecified)
RP-LC retention time: 982 s

Cc1cc(Cl)ccc1NC1=NS(=O)(=O)c2ccccc21
RP-LC retention time: 834 s

O=C(COc1coc(CN2CCc3ccccc32)cc1=O)NCc1ccc2c(c1)OCO2
RP-LC retention time: 781 s

CCCNc1nc(-c2ccccc2Cl)nc2ccccc12
RP-LC retention time: 702 s

COCCNC(=O)Nc1nnc(-c2ccccc2Cl)o1
RP-LC retention time: 647 s

COc1ccc(S(=O)(=O)N2CCCC(C(=O)Nc3ccccc3F)C2)cc1Cl (stereo unspecified)
RP-LC retention time: 985 s

Cc1nnc(-c2cc(C)n(CC(=O)Nc3ccc(Br)cc3)c2C)o1
RP-LC retention time: 836 s

N#Cc1cccc(-c2cn3c(n2)N(C(=O)C2CCC2)CCC3)c1
RP-LC retention time: 690 s

O=C(Nc1ccc(F)cc1)c1c(O)c2cccnc2n(-c2ccccc2)c1=O
RP-LC retention time: 1240 s

CN(C)c1cc(OC2CCN(C(=O)c3cccc4[nH]ccc34)C2)ncn1 (stereo unspecified)
RP-LC retention time: 622 s

CCOc1ccc(N2C(=O)Nc3ccccc3C2(O)C(=O)NCCCN2CCC(C)CC2)cc1 (stereo unspecified)
RP-LC retention time: 582 s

CCOC(=O)c1c(S(=O)(=O)NCCN2CCc3ccccc3C2)c(C)n(C)c1C
RP-LC retention time: 675 s

CCCn1cc(CCNS(=O)(=O)c2ccc3c(c2)CCCC3)c2cccnc21
RP-LC retention time: 1030 s

CNC(=O)NC1CCN(c2ccc(C)c(C)c2)C1=O (stereo unspecified)
RP-LC retention time: 654 s

COC(=O)c1c(NC(=O)C2COc3ccccc3O2)sc2c1CCN(C(=O)OC)C2 (stereo unspecified)
RP-LC retention time: 963 s

COc1cccc(CNC(=O)c2nnc(-c3ccc(S(=O)(=O)N4CCC(C)CC4)cc3)o2)c1
RP-LC retention time: 1030 s

O=C(c1cccc(F)c1)N1CCC2(CC1)N=C(c1ccc(Cl)cc1)NO2
RP-LC retention time: 800 s

CCn1nc(-c2ccc(OC)c(S(=O)(=O)N3CCC(C(N)=O)CC3)c2)c2c(c1=O)CCCC2
RP-LC retention time: 663 s

Cc1nn(C(C)C(=O)NCCc2ccccc2)c(=O)c2c(-n3cccc3)n(-c3ccccc3)nc12 (stereo unspecified)
RP-LC retention time: 1070 s

CCc1noc2nc(C)n(CC(=O)NCCc3ccccc3)c(=O)c12
RP-LC retention time: 800 s

Cc1cc2c(cc(C(=O)NCCc3ccccc3)n2C)s1
RP-LC retention time: 1040 s

O=C(NCCCCCCCCNC(=O)c1cccc2ccccc12)c1cccc2ccccc12
RP-LC retention time: 1010 s

O=C(NCC(c1ccco1)N1CCOCC1)c1cc(-c2ccc3c(c2)CCCC3)on1 (stereo unspecified)
RP-LC retention time: 827 s

O=C(NCc1ccccn1)C1c2ccccc2C(=O)N(Cc2ccccc2)C12CCCC2 (stereo unspecified)
RP-LC retention time: 704 s

O=c1n(Cc2c(F)cccc2Cl)nc2c(S(=O)(=O)N3CCc4ccccc4C3)cccn12
RP-LC retention time: 975 s

Cc1ccc(NS(=O)(=O)c2cc(-c3[nH]ncc3C(=O)N3CCCC3)oc2C)cc1
RP-LC retention time: 715 s

Cc1csc(-c2cc(S(=O)(=O)N(Cc3cccs3)C3CCCC3)c(C)s2)n1
RP-LC retention time: 1320 s
